Data: patent US20230017532A1 (Hoffmann-La Roche Inc., priority 2018, published 2023)
Where a name gives a salt, the structure may show the parent alone.

Test system: Acinetobacter baumannii ATCC17978
Assay: Antimicrobial susceptibility testing: 90% growth inhibitory concentration (IC90) determination, Iso-Sensitest broth, OD 600 nm
Type: cell-based
Conditions: 90% growth inhibitory concentration, Acinetobacter baumannii ATCC17978, Iso-Sensitest broth, OD 600 nm over 16 h; read-out: ATCC 17978 IC90
In short: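 Growth of bacteria (~5×10^5 CFU/ml, Iso-Sensitest medium, 35±2 °C) was followed by OD at 600 nm at 20-min intervals over 16 h against a 10-point twofold compound series (e.g. 50–0.097 μM final). Concentration giving 90% inhibition in log phase was reported.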

IC90 [nM] | Structure (SMILES)
180 | CCc1cc(Nc2nccn3c(-c4ccc(Cl)c(F)c4F)cnc23)ccc1C(=O)NCCOCCN [Example 87, N-[2-(2-aminoethoxy)ethyl]-4-[[3-(4-chloro-2,3-difluoro-phenyl)imidazo [1,2-a]pyrazin-8-yl]amino]-2-ethylbenzamide]

Same assay, conditions: Acinetobacter baumannii, ATCC17978, 16 h, 90% growth inhibitory concentration, Acinetobacter baumannii ATCC17978, Iso-Sensitest broth, OD 600 nm over 16 h; read-out: ATCC 17978 IC90

IC90 [nM] | Structure (SMILES)
4700 | COc1ccc(-c2cnc3c(Nc4ccc(C(=O)N(C)CCOCCN5CCNC(C(=O)O)C5)c(C)c4)nccn23)cc1F (centres unmarked) [Example 166, 4-[2-[2-[[4-[[3-(3-fluoro-4-methoxyphenyl)imidazo[1,2-a]pyrazin-8-yl]amino]-2-methylbenzoyl]-methylamino]ethoxy]ethyl]piperazine-2-carboxylic acid; hydrochloride]
770 | COc1ccc(-c2cnc3c(Nc4ccc(C(=O)N(C)CCOCCN5CCNCC5)c(C)c4)nccn23)cc1F [Example 131, 4-[[3-(3-fluoro-4-methoxyphenyl)imidazo[1,2-a]pyrazin-8-yl]amino]-N,2-dimethyl-N-[2-(2-piperazin-1-ylethoxy)ethyl]benzamide]
3800 | COc1ccc(-c2cnc3c(Nc4ccc(C(=O)NCCOCCN)cc4)nccn23)cc1 [Example 15, N-(2-(2-aminoethoxy)ethyl)-4-((3-(4-methoxyphenyl)imidazo[1,2-a]pyrazin-8-yl)amino)benzamide hydrochloride]
83 | N#CCOc1ccc(-c2cnc3c(Nc4ccc(C(=O)NCCOCCn5ccnc5)c(Cl)c4)nccn23)c(F)c1F [Example 19, N-(2-(2-(1H-imidazol-1-yl)ethoxy)ethyl)-2-chloro-4-((3-(4-(cyanomethoxy)-2,3-difluorophenyl)imidazo[1,2-a]pyrazin-8-yl)amino)benzamide]
570 | COc1ccc(-c2cnc3c(Nc4ccc(C(=O)NCCOCC(=O)N5CCNCC5)c(C)c4)nccn23)cc1 [Example 112, 4-[[3-(4-methoxyphenyl)imidazo[1,2-a]pyrazin-8-yl]amino]-2-methyl-N-[2-(2-oxo-2-piperazin-1-ylethoxy)ethyl] benzamide]
8100 | COc1ccc(-c2cnc3c(Nc4ccc(C(=O)NCCCOCC(=O)O)c(C)c4)nccn23)cc1F [Example 157, 2-[3-[[4-[[3-(3-fluoro-4-methoxyphenyl)imidazo[1,2-a]pyrazin-8-yl]amino]-2-methylbenzoyl]amino]propoxy] acetic acid]
1500 | COCCOCCOCCNC(=O)c1ccc(Nc2nccn3c(-c4ccc(OC(F)F)cc4)cnc23)cc1C [Example 150, 4-[[3-[4-(difluoro-methoxy)phenyl]imidazo [1,2-a]pyrazin-8-yl]amino]-N-[2-[2-(2-methoxy-ethoxy)ethoxy]ethyl]-2-methylbenzamide]
220 | CCc1cc(Nc2nccn3c(-c4ccc(OC)cc4)cnc23)ccc1C(=O)NCCOCCNCCO [Example 89, 2-ethyl-N-[2-[2-(2-hydroxyethyl-amino)ethoxy]ethyl]-4-[[3-(4-methoxyphenyl)imidazo[1,2-a]pyrazin-8-yl]amino]benzamide]
240 | COc1ccc(-c2cnc3c(Nc4ccc(C(=O)NCCOCCN)c(C)c4)nccn23)cc1 [Example 14, N-(2-(2-aminoethoxy)ethyl)-4-((3-(4-methoxyphenyl)imidazo[1,2-a]pyrazin-8-yl)amino)-2-methylbenzamide hydrochloride]
310 | Cc1cc(Nc2nccn3c(-c4ccc(OC(F)F)cc4)cnc23)ccc1C(=O)NCCOCCN(C)C [Example 96, 4-[[3-[4-(difluoromethoxy)phenyl]imidazo [1,2-a]pyrazin-8-yl]amino]-N-[2-[2-(dimethylamino)ethoxy]ethyl]-2-methyl-benzamide]
300 | CCc1cc(Nc2nccn3c(-c4ccc(OC(F)F)c(F)c4F)cnc23)ccc1C(=O)NCCOCCN(C)CC(=O)O [Example 51, N-(2-(2-(4-((3-(4-(Difluoromethoxy)-2,3-difluorophenyl)imidazo[1,2-a]pyrazin-8-yl)amino)-2-ethylbenzamido)ethoxy)ethyl)-N-methylglycine trifluoroacetate]
1900 | COc1ccc(-c2cnc3c(Nc4ccc(C(=O)N(C)CCN(C)CCO)c(C)c4)nccn23)cc1F [Example 144, 4-[[3-(3-fluoro-4-methoxyphenyl)imidazo[1,2-a]pyrazin-8-yl]amino]-N-[2-[2-hydroxyethyl (methyl)amino]ethyl]-N,2-dimethyl-benzamide]
670 | Cc1cc(Nc2nccn3c(-c4ccc(OC(F)F)cc4)cnc23)ccc1C(=O)N(C)CCOCCN1CCNCC1 [Example 126, 4-[[3-[4-(difluoromethoxy)phenyl]imidazo [1,2-a]pyrazin-8-yl]amino]-N,2-dimethyl-N-[2-(2-piperazin-1-ylethoxy)ethyl] benzamide]
620 | COc1ccc(-c2cnc3c(Nc4ccc(C(=O)NCCOCCN5CCN(C)CC5)c(C)c4)nccn23)cc1 [Example 121, 4-[[3-(4-methoxyphenyl)imidazo[1,2-a]pyrazin-8-yl]amino]-2-methyl-N-[2-[2-(4-methylpiperazin-1-yl)ethoxy]ethyl] benzamide]
4200 | CNCCNC(=O)c1ccc(Nc2nccn3c(-c4ccc(OC)c(Cl)c4)cnc23)cc1 [Example 13, 4-[[3-(3-chloro-4-methoxyphenyl)imidazo[1,2-a]pyrazin-8-yl]amino]-N-[2-(methylamino)ethyl]benzamide;hydrochloride]
280 | CCc1cc(Nc2nccn3c(-c4ccc(OC(F)F)c(F)c4F)cnc23)ccc1C(=O)NCCNCCN [Example 170, N-[2-(2-aminoethylamino)ethyl]-4-[[3-[4-(difluoro-methoxy)-2,3-difluorophenyl]imidazo[1,2-a]pyrazin-8-yl]amino]-2-ethylbenzamide; hydrochloride]
290 | CCc1cc(Nc2nccn3c(-c4ccc(OC)c(F)c4F)cnc23)ccc1C(=O)NCCNCCO [Example 196, 4-((3-(2,3-difluoro-4-methoxyphenyl)imidazo[1,2-a]pyrazin-8-yl)amino)-2-ethyl-N-(2-((2-hydroxyethyl)amino)ethyl) benzamide hydrochloride]
530 | COc1ccc(-c2cnc3c(Nc4ccc(C(=O)NCCOCCNS(C)(=O)=O)c(C)c4)nccn23)cc1 [Example 109, N-[2-[2-(methane-sulfonamido)ethoxy]ethyl]-4-[[3-(4-methoxyphenyl)imidazo[1,2-a]pyrazin-8-yl]amino]-2-methylbenzamide]
3400 | CCNCCCN(CC)C(=O)c1ccc(Nc2nccn3c(-c4ccc(OC)c(F)c4)cnc23)cc1C [Example 128, N-ethyl-N-[3-(ethylamino)propyl]-4-[[3-(3-fluoro-4-methoxyphenyl)imidazo[1,2-a]pyrazin-8-yl]amino]-2-methyl-benzamide]
920 | Cc1cc(Nc2nccn3c(-c4ccc(OC(F)F)cc4)cnc23)ccc1C(=O)NCC[S+]([O-])CCN (centres unmarked) [Example 47, N-(2-((2-Aminoethyl)sulfinyl)ethyl)-4-((3-(4-(difluoromethoxy)phenyl)imidazo[1,2-a]pyrazin-8-yl)amino)-2-methylbenzamide]
1600 | COc1ccc(-c2cnc3c(Nc4ccc(C(=O)N(C)CCOCCN5CCN(C6COC6)CC5)c(C)c4)nccn23)cc1F [Example 151, 4-[[3-(3-fluoro-4-methoxyphenyl)imidazo[1,2-a]pyrazin-8-yl]amino]-N,2-dimethyl-N-[2-[2-[4-(oxetan-3-yl)piperazin-1-yl]ethoxy]ethyl] benzamide]
340 | Cc1cc(Nc2nccn3c(-c4ccc(OC(F)F)cc4)cnc23)ccc1C(=O)NCCOCCN1CCC(O)CC1 [Example 81, 4-[[3-[4-(difluoromethoxy)phenyl]imidazo [1,2-a]pyrazin-8-yl]amino]-N-[2-[2-(4-hydroxy-piperidin-1-yl)ethoxy]ethyl]-2-methylbenzamide]
370 | CCc1cc(Nc2nccn3c(-c4ccc(OC)c(F)c4F)cnc23)ccc1C(=O)NCCCCNCC(=O)O [Example 197, (4-(4-((3-(2,3-difluoro-4-methoxyphenyl)imidazo[1,2-a]pyrazin-8-yl)amino)-2-ethylbenzamido)butyl)glycine hydrochloride]

Same assay, conditions: Acinetobacter baumannii, ATCC17978, 16 h, read-out: ATCC 17978 IC90

Structure (SMILES) | IC90 [nM]
COc1ccc(-c2cnc3c(Nc4ccc(C(=O)NCCOCCN)c(C)c4)nccn23)cc1Cl [Example 30, N-(2-(2-aminoethoxy)ethyl)-4-((3-(3-chloro-4-methoxyphenyl)imidazo[1,2-a]pyrazin-8-yl)amino)-2-methylbenzamide hydrochloride] | 140
CC#CCOc1ccc(-c2cnc3c(Nc4ccc(C(=O)NCCOCCN)c(C)c4)nccn23)cc1 [Example 67, N-[2-(2-aminoethoxy)ethyl]-4-[[3-(4-but-2-ynoxyphenyl)imidazo[1,2-a]pyrazin-8-yl]amino]-2-methyl-benzamide; 2,2,2-trifluoroacetic acid] | 230
Cc1cc(Nc2nccn3c(-c4ccc(F)cc4)cnc23)ccc1C(=O)NCCOCCN [Example 31, N-(2-(2-aminoethoxy)ethyl)-4-((3-(4-fluorophenyl)imidazo[1,2-a]pyrazin-8-yl)amino)-2-methylbenzamide hydrochloride] | 950
CCc1cc(Nc2nccn3c(-c4ccc(OC(F)F)c(F)c4F)cnc23)ccc1C(=O)NCCOCCO[C@H]1O[C@H](CO)[C@H](O)[C@H](O)[C@H]1O [Example 194, 4-((3-(4-(difluoro-methoxy)-2,3-difluorophenyl)imidazo[1,2-a]pyrazin-8-yl)amino)-2-ethyl-N-(2-(2-(((2S,3R, 4S,5R,6R)-3,4,5-trihydroxy-6-(hydroxymethyl)tetrahydro-2H-pyran-2-yl)oxy)ethoxy)ethyl) benzamide formate] | 350
COc1ccc(-c2cnc3c(Nc4ccc(C(=O)NCCOCCN)c(C)c4)nccn23)c(F)c1F [Example 5, N-(2-(2-aminoethoxy)ethyl)-4-((3-(2,3-difluoro-4-methoxyphenyl)imidazo[1,2-a]pyrazin-8-yl)amino)-2-methylbenzamide hydrochloride] | 65
